Measurements: article PMC4354951 (European journal of medicinal chemistry, 2008)
pEC50: −log10 of the molar value. Entries after “also recorded” stand apart in the source; their conditions may differ.

Key:
human NTPDase1 = target: T1, human NTPDase1 (Homo sapiens, UniProt P49961); assay: Hydrolysis by NTPDase1; format: biochemical; details: 100 μM substrate; relative to ATP hydrolysis (100%)
T1 sequence (P49961 1-510): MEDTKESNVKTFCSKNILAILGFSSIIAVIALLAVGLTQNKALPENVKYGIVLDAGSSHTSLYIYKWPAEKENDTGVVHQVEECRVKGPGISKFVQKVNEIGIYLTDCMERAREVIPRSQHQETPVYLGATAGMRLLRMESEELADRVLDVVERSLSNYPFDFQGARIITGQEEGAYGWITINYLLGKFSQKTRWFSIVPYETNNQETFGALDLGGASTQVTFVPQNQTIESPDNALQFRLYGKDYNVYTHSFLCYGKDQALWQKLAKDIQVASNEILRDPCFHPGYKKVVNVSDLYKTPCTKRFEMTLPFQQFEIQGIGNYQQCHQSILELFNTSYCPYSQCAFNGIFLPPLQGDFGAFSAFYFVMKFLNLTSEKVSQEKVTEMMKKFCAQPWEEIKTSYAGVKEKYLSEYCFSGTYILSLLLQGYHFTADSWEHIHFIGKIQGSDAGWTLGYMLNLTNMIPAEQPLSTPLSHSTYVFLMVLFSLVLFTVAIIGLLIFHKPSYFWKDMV

turkey P2Y1 receptor = turkey P2Y1 receptor (Meleagris gallopavo, UniProt P49652); format: cell-based; details: 1321N1 cell transfectants; for pEC50: read-out: EC50 of analogue-induced increase in [Ca2+]i, P2Y1
human NTPDase8 = target: T2, human NTPDase8 (Homo sapiens, UniProt Q5MY95); assay: Hydrolysis by NTPDase8; format: biochemical; details: 100 μM substrate; relative to ATP hydrolysis (100%)
T2 sequence (Q5MY95 1-495): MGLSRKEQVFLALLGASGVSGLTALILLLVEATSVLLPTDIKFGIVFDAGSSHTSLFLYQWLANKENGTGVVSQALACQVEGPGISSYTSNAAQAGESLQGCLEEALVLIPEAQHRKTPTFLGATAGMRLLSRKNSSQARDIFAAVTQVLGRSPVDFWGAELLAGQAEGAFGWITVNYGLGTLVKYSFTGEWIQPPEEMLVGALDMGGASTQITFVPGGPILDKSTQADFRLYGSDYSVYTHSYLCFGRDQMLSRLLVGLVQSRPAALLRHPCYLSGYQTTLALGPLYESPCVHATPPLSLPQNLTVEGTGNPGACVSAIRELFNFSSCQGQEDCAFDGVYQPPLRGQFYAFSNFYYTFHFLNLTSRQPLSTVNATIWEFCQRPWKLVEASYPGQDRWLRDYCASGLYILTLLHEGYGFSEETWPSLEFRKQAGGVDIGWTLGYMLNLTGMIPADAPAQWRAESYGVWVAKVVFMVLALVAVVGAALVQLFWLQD

rat P2Y6 receptor = rat P2Y6 receptor (Rattus norvegicus, UniProt Q63371); assay: Increase in [Ca2+]i in 1321N1 astrocytoma cells expressing P2Y6 receptor; format: cell-based; details: 1321N1 cell transfectants; for pEC50: read-out: EC50 of analogue-induced increase in [Ca2+]i, P2Y6
human NPP1 = target: T3, human NPP1 (Homo sapiens, UniProt P22413); assay: Hydrolysis by NPP1; format: biochemical; details: 100 μM substrate; relative to pnp-TMP hydrolysis (100%)
T3 sequence (P22413 1-925): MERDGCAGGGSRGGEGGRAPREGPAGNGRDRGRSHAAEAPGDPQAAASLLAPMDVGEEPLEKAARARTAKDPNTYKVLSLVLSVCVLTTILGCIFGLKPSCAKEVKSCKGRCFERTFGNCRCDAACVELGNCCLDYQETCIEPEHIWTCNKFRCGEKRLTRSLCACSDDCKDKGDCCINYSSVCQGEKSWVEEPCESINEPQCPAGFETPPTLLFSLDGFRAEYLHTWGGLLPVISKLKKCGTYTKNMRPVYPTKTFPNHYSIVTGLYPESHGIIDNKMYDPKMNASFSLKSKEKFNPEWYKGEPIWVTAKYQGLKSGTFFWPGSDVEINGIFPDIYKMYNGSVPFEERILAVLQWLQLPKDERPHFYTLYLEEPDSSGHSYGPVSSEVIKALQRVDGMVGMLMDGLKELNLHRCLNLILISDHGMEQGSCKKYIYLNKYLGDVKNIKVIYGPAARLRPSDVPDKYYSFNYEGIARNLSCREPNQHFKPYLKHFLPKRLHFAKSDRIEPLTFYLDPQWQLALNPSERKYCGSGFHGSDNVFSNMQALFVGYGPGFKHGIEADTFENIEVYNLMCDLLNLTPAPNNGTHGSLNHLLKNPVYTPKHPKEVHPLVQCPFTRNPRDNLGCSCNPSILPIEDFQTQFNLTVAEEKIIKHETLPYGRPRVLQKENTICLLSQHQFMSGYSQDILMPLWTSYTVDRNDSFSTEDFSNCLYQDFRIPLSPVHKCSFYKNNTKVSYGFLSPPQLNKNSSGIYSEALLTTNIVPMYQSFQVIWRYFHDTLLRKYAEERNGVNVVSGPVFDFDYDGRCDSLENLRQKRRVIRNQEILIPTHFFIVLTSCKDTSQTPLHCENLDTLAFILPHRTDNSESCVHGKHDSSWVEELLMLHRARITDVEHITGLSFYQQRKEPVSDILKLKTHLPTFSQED

human NTPDase2 = target: T4, human NTPDase2 (Homo sapiens, UniProt Q9Y5L3); assay: Hydrolysis by NTPDase2; format: biochemical; details: 100 μM substrate; relative to ATP hydrolysis (100%)
T4 sequence (Q9Y5L3 1-495): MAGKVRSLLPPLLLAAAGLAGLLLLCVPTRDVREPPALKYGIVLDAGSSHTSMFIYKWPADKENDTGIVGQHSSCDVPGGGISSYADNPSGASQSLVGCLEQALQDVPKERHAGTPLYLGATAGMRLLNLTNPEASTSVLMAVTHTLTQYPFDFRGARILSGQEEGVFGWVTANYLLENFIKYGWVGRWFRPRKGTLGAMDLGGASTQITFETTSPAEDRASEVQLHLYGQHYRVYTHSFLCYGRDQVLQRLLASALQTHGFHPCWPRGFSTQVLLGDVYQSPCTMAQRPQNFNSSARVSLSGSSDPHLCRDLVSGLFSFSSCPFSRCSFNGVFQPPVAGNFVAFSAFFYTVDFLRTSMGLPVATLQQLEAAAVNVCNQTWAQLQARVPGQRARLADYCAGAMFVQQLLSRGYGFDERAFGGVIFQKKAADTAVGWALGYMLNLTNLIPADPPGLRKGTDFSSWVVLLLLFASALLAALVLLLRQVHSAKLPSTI

Chain of rat P2Y6 receptor (Q63371 whole entry): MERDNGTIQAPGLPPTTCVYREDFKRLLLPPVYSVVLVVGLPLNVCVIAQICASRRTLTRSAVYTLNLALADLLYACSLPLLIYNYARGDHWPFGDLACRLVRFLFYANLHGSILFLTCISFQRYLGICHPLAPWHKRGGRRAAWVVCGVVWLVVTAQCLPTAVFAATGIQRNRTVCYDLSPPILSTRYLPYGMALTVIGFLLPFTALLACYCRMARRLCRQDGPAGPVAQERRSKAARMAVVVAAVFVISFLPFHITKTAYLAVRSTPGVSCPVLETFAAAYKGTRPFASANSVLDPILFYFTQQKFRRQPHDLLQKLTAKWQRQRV
Chain of turkey P2Y1 receptor (P49652 whole entry): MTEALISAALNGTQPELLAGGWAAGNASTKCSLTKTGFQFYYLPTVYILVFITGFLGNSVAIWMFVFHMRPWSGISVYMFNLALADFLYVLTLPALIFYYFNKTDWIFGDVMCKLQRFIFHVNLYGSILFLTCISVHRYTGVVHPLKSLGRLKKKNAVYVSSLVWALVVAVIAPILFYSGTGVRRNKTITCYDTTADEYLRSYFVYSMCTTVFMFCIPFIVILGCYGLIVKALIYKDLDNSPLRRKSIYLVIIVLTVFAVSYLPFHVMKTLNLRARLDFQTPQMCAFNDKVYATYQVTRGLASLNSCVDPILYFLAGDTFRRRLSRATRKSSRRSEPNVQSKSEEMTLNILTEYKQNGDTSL

[BH3-][P+](O)(OC[C@H]1O[C@@H](n2cnc3c(N)ncnc32)[C@H](O)[C@@H]1O)OP(=O)(O)CP(=O)(O)O (single isomer, unassigned) [3A, Adenosine-5′-O-(α-boranotriphosphate)-β,γ-CH2]
Relative activity of NTPDase1 (human NTPDase1): 1.0 ± 2.1% | agonist activity at P2Y1R (turkey P2Y1 receptor): insignificant activities; also recorded: practically inactive | pEC50 (turkey P2Y1 receptor): < 4.00 | Relative activity of NTPDase8 (human NTPDase8): 2.0 ± 0.03% | agonist activity at P2Y6R (rat P2Y6 receptor): insignificant activities | pEC50 (rat P2Y6 receptor): < 4.00 | Relative activity of NPP1 (human NPP1): 0% | Relative activity of NTPDase2 (human NTPDase2): 1.0 ± 0.2%

[BH3-][P+](O)(OC[C@H]1O[C@@H](n2cnc3c(N)nc(SC)nc32)[C@H](O)[C@@H]1O)OP(=O)(O)CP(=O)(O)O (single isomer, unassigned) [4A, 2-MeS–adenosine-5′-O-(α-boranotriphosphate)-β,γ-CH2]
Relative activity of NTPDase1 (human NTPDase1): <1% | agonist activity at P2Y1R (turkey P2Y1 receptor): insignificant activities; also recorded: practically inactive; also recorded: no activity | pEC50 (turkey P2Y1 receptor): < 4.00 | Relative activity of NTPDase8 (human NTPDase8): 4.0 ± 0.02% | agonist activity at P2Y6R (rat P2Y6 receptor): insignificant activities | pEC50 (rat P2Y6 receptor): < 4.00 | Relative activity of NPP1 (human NPP1): 0% | Relative activity of NTPDase2 (human NTPDase2): 1.0 ± 0.1%

[BH3-][P+](O)(OC[C@H]1O[C@@H](n2cnc3c(N)ncnc32)[C@H](O)[C@@H]1O)OP(=O)(O)CP(=O)(O)O (single isomer, unassigned) [3B, Adenosine-5′-O-(α-boranotriphosphate)-β,γ-CH2]
Relative activity of NTPDase1 (human NTPDase1): 0% | agonist activity at P2Y1R (turkey P2Y1 receptor): insignificant activities | pEC50 (turkey P2Y1 receptor): < 4.00 | Relative activity of NTPDase8 (human NTPDase8): <1% | agonist activity at P2Y6R (rat P2Y6 receptor): insignificant activities | pEC50 (rat P2Y6 receptor): < 4.00 | Relative activity of NPP1 (human NPP1): 4.0 ± 0.12% | Relative activity of NTPDase2 (human NTPDase2): 0%
